Source: paper PMC8467962, “Design and Synthesis of Water-Soluble and Potent MMP-13 Inhibitors with Activity in Human Osteosarcoma Cells” (International Journal of Molecular Sciences, 2021)
≈ marks a conversion by molar mass, not a printed value.

Tests used:
[1] = Thermodynamic solubility (shake flask method); assay type: physicochemical; conditions: phosphate buffer, aqueous buffer, thermodynamic from solid; PBS pH 7.4, shake flask, room temperature; read-out: Experimental Water Solubility LogS (converted)
Description: The samples were sonicated for 10 min and shaken overnight at 800 rpm (FB15013 TopMix, Fischer Scientific, Waltham, MA, USA) at room temperature. A first phase separation of supernatant and undissolved solid was performed by centrifugation at 5000 rpm for 20 min (Biofuge primo R). The supernatant was then transferred into Eppendorf tubes for a second centrifugation. An adequate dilution was made using the particle-free supernatant and the concentration quantified by LC-HRMS using a 4-point calibration curve (Agilent 1260 Infinity II).
PART A. Calibration curves of compounds for solubility
9e, 10a-e), 4-points calibration curves were made for each compound. Calibrations curves were obtained using four different concentrations of the corresponding compound (0.1 mg/mL, 0.01 mg/mL, 0.001 mg/mL and 0.0001 mg/mL). All samples were prepared in DMSO and measured in a LC-HRMS (Agilent 1260 Infinity II).
Figure S1. Calibration curves of all active compounds (solubility studies) (1, 2, 9a, 9e, 10a-e) […]

MMP-2 = biological target: T1, MMP-2 (Homo sapiens, UniProt P08253); assay: MMP inhibition assay (MMP Inhibitor Profiling Kit, thiopeptide substrate), MMP-2; assay type: biochemical; conditions: catalytic domain, 37 °C, pH 7.5
T1 construct: the catalytic domains of the corresponding MMP were incubated in triplicate; purchased Enzo Life Science International, Inc
T1 sequence (P08253 110-446 limits assumed): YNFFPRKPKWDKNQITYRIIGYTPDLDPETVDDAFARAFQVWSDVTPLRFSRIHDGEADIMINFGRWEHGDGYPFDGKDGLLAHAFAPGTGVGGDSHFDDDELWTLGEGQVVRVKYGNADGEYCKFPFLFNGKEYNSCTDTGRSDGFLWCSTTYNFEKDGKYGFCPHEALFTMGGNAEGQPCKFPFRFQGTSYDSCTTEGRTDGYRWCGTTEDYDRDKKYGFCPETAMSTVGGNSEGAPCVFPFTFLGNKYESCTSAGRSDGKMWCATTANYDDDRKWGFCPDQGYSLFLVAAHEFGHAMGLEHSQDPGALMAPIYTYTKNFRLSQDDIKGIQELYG
Description: (§1) MMP activity measurements were performed using an MMP Inhibitor Profiling Kit purchased from Enzo Life Science International, Inc. (Farmingdale, NY, USA), and following the manufacturer’s protocol with slight modifications. Proteolytic activity was measured using a thiopeptide substrate (Ac-PLG-[2-mercapto-4-methylpentanoyl]-LG-OC2H5) where the MMP cleavage site peptide bond has been replaced by a thioester bond. Hydrolysis of this bond by MMPs produces a sulfhydryl group that reacts with DTNB to form 2-nitro-5-thiobenzoic acid, which was detected by its absorbance at 414 nm (microplate photometer 90 Thermo Scientific Multiscan FC).
(§2) Enzyme reactions were carried out at 37 °C in a 100 μL final volume of solutions, where the catalytic domains of the corresponding MMP were incubated in triplicate with at least seven concentrations of inhibitors. The assay buffer contained the following components: 50 mM HEPES, 10 mM CaCl2 95, 0.05% Brij-35, and 1 mM DTNB at pH 7.5. After addition of the substrate, the increase of absorbance was recorded in 1 min time intervals for 30 min. Data were plotted as OD versus time for each sample to obtain the reaction velocity (V) in OD per min. The percentage of residual activity for each compound was calculated using the following formula: % of remaining activity = (V in the presence of inhibitor/Vcontrol) × 100. An inhibitor, NNGH, was included as a prototypic control inhibitor. IC50 calculations in MMP-13 and MMP-2 for active compounds are shown in Supplementary Materials (Figure S9)
The concentration of the compound that provided 50% inhibition of enzymatic activity (IC50) was determined by using semi-logarithmic dose–response plots (Graph Pad Prism 5.0 for Windows, Graph Pad Software Inc., San Diego, CA, USA, 2007).

MMP-14 = biological target: T2, MMP-14 (Homo sapiens, UniProt P50281); assay: MMP inhibition assay (MMP Inhibitor Profiling Kit, thiopeptide substrate), MMP-14; assay type: biochemical; conditions: panel of MMPs
T2 construct: the catalytic domains of the corresponding MMP were incubated in triplicate; purchased Enzo Life Science International, Inc
Description: as §1
as §2, with “An inhibitor, NNGH, was included as a prototypic control inhibitor. IC50 calculations in MMP-13 and MMP-2 for active compounds are shown in Supplementary Materials (Figure S9)” left out

MMP-10 = biological target: T3, MMP-10 (Homo sapiens, UniProt P09238); assay: MMP inhibition assay (MMP Inhibitor Profiling Kit, thiopeptide substrate), MMP-10; assay type: biochemical; conditions: panel of MMPs
T3 construct: the catalytic domains of the corresponding MMP were incubated in triplicate; purchased Enzo Life Science International, Inc
T3 sequence (P09238 99-263 limits assumed): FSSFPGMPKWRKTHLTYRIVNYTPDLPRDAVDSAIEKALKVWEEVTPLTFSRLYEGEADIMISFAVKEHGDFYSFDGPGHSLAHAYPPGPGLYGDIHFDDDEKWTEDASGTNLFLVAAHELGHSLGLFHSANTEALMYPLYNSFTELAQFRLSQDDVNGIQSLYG
Description: as §1
as §2, with “An inhibitor, NNGH, was included as a prototypic control inhibitor. IC50 calculations in MMP-13 and MMP-2 for active compounds are shown in Supplementary Materials (Figure S9)” left out

MMP-3 = biological target: T4, MMP-3 (Homo sapiens, UniProt P08254); assay: MMP inhibition assay (MMP Inhibitor Profiling Kit, thiopeptide substrate), MMP-3; assay type: biochemical; conditions: panel of MMPs
T4 construct: the catalytic domains of the corresponding MMP were incubated in triplicate; purchased Enzo Life Science International, Inc
T4 sequence (P08254 100-272 limits assumed): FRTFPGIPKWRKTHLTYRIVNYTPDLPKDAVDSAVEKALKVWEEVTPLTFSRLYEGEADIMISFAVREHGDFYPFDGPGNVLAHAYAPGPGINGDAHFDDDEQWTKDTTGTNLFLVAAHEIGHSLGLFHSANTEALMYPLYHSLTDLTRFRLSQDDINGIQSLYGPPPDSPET
Description: as §1
as §2, with “An inhibitor, NNGH, was included as a prototypic control inhibitor. IC50 calculations in MMP-13 and MMP-2 for active compounds are shown in Supplementary Materials (Figure S9)” left out

MMP-8 = biological target: T5, MMP-8 (Homo sapiens, UniProt P22894); assay: MMP inhibition assay (MMP Inhibitor Profiling Kit, thiopeptide substrate), MMP-8; assay type: biochemical; conditions: panel of MMPs
T5 construct: the catalytic domains of the corresponding MMP were incubated in triplicate; purchased Enzo Life Science International, Inc
T5 sequence (P22894 100-262 limits assumed): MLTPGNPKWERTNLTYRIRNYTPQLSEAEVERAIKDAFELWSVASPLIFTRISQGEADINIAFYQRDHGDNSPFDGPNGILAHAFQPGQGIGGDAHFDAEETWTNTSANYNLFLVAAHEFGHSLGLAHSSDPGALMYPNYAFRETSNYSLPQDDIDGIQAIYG
Description: as §1
as §2, with “An inhibitor, NNGH, was included as a prototypic control inhibitor. IC50 calculations in MMP-13 and MMP-2 for active compounds are shown in Supplementary Materials (Figure S9)” left out

MMP-9 = biological target: T6, MMP-9 (Homo sapiens, UniProt P14780); assay: MMP inhibition assay (MMP Inhibitor Profiling Kit, thiopeptide substrate), MMP-9; assay type: biochemical; conditions: panel of MMPs
T6 construct: the catalytic domains of the corresponding MMP were incubated in triplicate; purchased Enzo Life Science International, Inc
T6 sequence (P14780 107-444 limits assumed): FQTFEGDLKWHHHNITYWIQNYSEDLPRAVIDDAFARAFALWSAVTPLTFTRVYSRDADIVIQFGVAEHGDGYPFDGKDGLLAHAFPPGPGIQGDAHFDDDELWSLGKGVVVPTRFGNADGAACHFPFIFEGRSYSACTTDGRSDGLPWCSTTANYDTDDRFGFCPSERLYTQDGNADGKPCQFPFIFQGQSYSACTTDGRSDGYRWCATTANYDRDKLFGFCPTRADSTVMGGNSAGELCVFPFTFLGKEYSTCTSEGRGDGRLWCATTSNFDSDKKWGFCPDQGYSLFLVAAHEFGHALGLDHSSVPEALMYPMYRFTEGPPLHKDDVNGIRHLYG
Description: as §1
as §2, with “An inhibitor, NNGH, was included as a prototypic control inhibitor. IC50 calculations in MMP-13 and MMP-2 for active compounds are shown in Supplementary Materials (Figure S9)” left out

MMP-7 = biological target: T7, MMP-7 (Homo sapiens, UniProt P09237); assay: MMP inhibition assay (MMP Inhibitor Profiling Kit, thiopeptide substrate), MMP-7; assay type: biochemical; conditions: panel of MMPs
T7 construct: the catalytic domains of the corresponding MMP were incubated in triplicate; purchased Enzo Life Science International, Inc
T7 sequence (P09237 95-267): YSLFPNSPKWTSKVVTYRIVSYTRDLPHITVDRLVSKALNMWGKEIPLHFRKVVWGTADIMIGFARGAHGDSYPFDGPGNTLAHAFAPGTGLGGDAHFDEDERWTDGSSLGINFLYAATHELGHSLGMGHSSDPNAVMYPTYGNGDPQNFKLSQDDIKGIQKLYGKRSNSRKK
Description: as §1
as §2, with “An inhibitor, NNGH, was included as a prototypic control inhibitor. IC50 calculations in MMP-13 and MMP-2 for active compounds are shown in Supplementary Materials (Figure S9)” left out

MMP-1 = biological target: T8, MMP-1 (Homo sapiens, UniProt P03956); assay: MMP inhibition assay (MMP Inhibitor Profiling Kit, thiopeptide substrate), MMP-1; assay type: biochemical; conditions: panel of MMPs
T8 construct: the catalytic domains of the corresponding MMP were incubated in triplicate; purchased Enzo Life Science International, Inc
T8 sequence (P03956 100-269 limits assumed): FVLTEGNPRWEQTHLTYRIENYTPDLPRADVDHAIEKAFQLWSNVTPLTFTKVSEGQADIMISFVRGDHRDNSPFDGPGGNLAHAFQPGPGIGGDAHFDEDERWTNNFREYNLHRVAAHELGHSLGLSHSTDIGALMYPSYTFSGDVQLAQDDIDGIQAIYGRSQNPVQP
Description: as §1
as §2, with “An inhibitor, NNGH, was included as a prototypic control inhibitor. IC50 calculations in MMP-13 and MMP-2 for active compounds are shown in Supplementary Materials (Figure S9)” left out

MMP-12 = biological target: T9, MMP-12 (Homo sapiens, UniProt P39900); assay: MMP inhibition assay (MMP Inhibitor Profiling Kit, thiopeptide substrate), MMP-12; assay type: biochemical; conditions: panel of MMPs
T9 construct: the catalytic domains of the corresponding MMP were incubated in triplicate; purchased Enzo Life Science International, Inc
T9 sequence (P39900 106-263 limits assumed): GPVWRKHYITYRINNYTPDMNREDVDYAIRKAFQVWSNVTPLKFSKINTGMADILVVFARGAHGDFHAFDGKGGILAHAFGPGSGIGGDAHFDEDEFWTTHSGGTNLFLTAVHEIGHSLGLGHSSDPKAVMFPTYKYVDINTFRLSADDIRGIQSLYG
Description: as §1
as §2, with “An inhibitor, NNGH, was included as a prototypic control inhibitor. IC50 calculations in MMP-13 and MMP-2 for active compounds are shown in Supplementary Materials (Figure S9)” left out

MMP-13 = biological target: T10, MMP-13 (Homo sapiens, UniProt P45452); assay: MMP inhibition assay (MMP Inhibitor Profiling Kit, thiopeptide substrate), MMP-13; assay type: biochemical; conditions: catalytic domain, 37 °C, pH 7.5
T10 construct: the catalytic domains of the corresponding MMP were incubated in triplicate; purchased Enzo Life Science International, Inc
Description: as §1, with “Proteolytic activity was measured using a thiopeptide substrate (Ac-PLG-[2-mercapto-4-methylpentanoyl]-LG-OC2H5) where the MMP cleavage site peptide bond has been replaced by a thioester bond.” left out
The assay buffer contained the following components: 50 mM HEPES, 10 mM CaCl2 95, 0.05% Brij-35, and 1 mM DTNB at pH 7.5. After addition of the substrate, the increase of absorbance was recorded in 1 min time intervals for 30 min. Data were plotted as OD versus time for each sample to obtain the reaction velocity (V) in OD per min. The percentage of residual activity for each compound was calculated using the following formula: % of remaining activity = (V in the presence of inhibitor/Vcontrol) × 100. An inhibitor, NNGH, was included as a prototypic control inhibitor.

[2] = biological target: commercially available MMP-13 active protein (Homo sapiens, UniProt P45452); assay: Enzymatic activity of commercial MMP-13, dose response of BiPS; assay type: biochemical
From the text: (§3) Figure S5. PyMOL stick and cartoon representation of the bidentate interaction established by the hydroxamate and the catalytic Zinc ion in both MMP-13 (left) and MMP-2 (right). Hydrogen bonds are shown in dashed lines, the catalytic zinc ion is shown as grey sphere. For the sake of clarity, no hydrogens are shown.
(§4) Figure S6. SDS-PAGE analysis of the recombinantly expressed catalytic dom ain of MMP-13 purified by metal affinity chromatography. M corresponds to the molecular weight markers ( k D a ) . […]
(§5) Log(BiPS [M]) Log(BiPS [M])
(§6) Figure S7. Dose response curve used to determine IC50 of BiPS for A) recombinantly expressed catalytic domain of MMP-13, and B) commercially available MMP-13 active protein. […]

[3] = biological target: T11, recombinantly expressed catalytic domain of MMP-13 (Homo sapiens, UniProt P45452); assay: Enzymatic activity of recombinantly expressed MMP-13 catalytic domain, dose response of BiPS; assay type: biochemical; conditions: recombinantly expressed catalytic domain of MMP-13, after refolding
T11 construct: containing the catalytic site (amino acid residues −104 to 274); TEV cleavage site (C); 6xHis (C); made in house; host or cells: Escherichia coli BL21-DE3 pLys S
From the text: To this end, a recombinantly expressed catalytic domain of MMP-13 was purified under denaturing conditions (Figure S6); the process lead to a very pure sample preparation.
as §3, §4, §5, §6

MMP-13 catalytic domain = MMP-13 catalytic domain (Homo sapiens, UniProt P45452); assay: WaterLOGSY NMR experiment; conditions: 5 μM protein, 0.15 mM ligand, 25 °C

SMILES | solubility [1] | IC50 (MMP-2) | melting point | IC50 (MMP-13) | also measured
O=C(NO)[C@@H](Cc1ccccc1)NS(=O)(=O)c1ccc(-n2cc(CCn3nc4ccccc4n3)nn2)cc1 [Compound 9a] | 9.77 µM (≈ 5.2 µg/mL) | 3.42 ± 1.15 nM |  |  | IC50 (MMP-14): > 1000 nM; IC50 (MMP-10): 280 ± 22 nM; IC50 (MMP-3): 31 ± 8 nM; IC50 (MMP-8): 100 ± 19 nM; IC50 (MMP-9): 500 ± 74 nM; IC50 (MMP-7): 47 ± 21 nM; IC50 (MMP-1): > 1000 nM; IC50 (MMP-12): 3.7 ± 2 nM
O=C(O)[C@@H](Cc1ccccc1)NS(=O)(=O)c1ccc(-n2cc(CCn3nc4ccccc4n3)nn2)cc1 [Compound 9b, (R)-2-(4-(4-(2-(2H-benzo[d][1–3]triazol-2-yl)ethyl)-1H-1,2,3-triazol-1-yl)phenylsulfonamido)-3-phenylpropanoic acid] |  | > 100 nM | 246 °C (dec.) | > 100 nM | 
O=C(O)[C@@H](Cc1ccccc1)NS(=O)(=O)c1ccc(-n2cc(CCn3nc4c(Br)c(Br)c(Br)c(Br)c4n3)nn2)cc1 [Compound 9d, (R)-2-(4-(4-(2-(perbromo-2H-benzo[d][1–3]triazol-2-yl)ethyl)-1H-1,2,3-triazol-1-yl)phenylsulfonamido)-3-phenylpropanoic acid] |  | > 100 nM | 127 to 130 °C | > 100 nM | 
O=C(NO)[C@@H](Cc1ccccc1)NS(=O)(=O)c1ccc(-c2ccccc2)cc1 [BiPS, (2R)-[(4-biphenylylsulfonyl)amino]-N-hydroxy-3-phenylpropionamide] |  |  |  |  | IC50 [2]: 2.06 nM; IC50 [3]: 1.44 nM; Interaction with the MMP-13 catalytic domain (WaterLOGSY) (MMP-13 catalytic domain): positive signals

Continued, in another order:

solubility [1] | IC50 (MMP-2) | melting point | IC50 (MMP-13) | SMILES | also measured
8.32 µM (≈ 4.78 µg/mL) | 2.9 ± 1.1 nM | 143 to 145 °C |  | Cc1ccc2c(c1)C(=O)N(CCc1cn(-c3ccc(S(=O)(=O)N[C@H](Cc4ccccc4)C(=O)NO)cc3)nn1)C2=O [Compound 10e, (R)-N-hydroxy-2-((4-(4-(2-(5-methyl-1,3-dioxoisoindolin-2-yl)ethyl)-1H-1,2,3-triazol-1-yl)phenyl)sulfonamido)-3-phenylpropanamide] | 
3.63 µM (≈ 2.61 µg/mL) | 15 ± 5 nM | 187 to 189 °C | 46 ± 21 nM | O=C(NO)[C@@H](Cc1ccccc1)NS(=O)(=O)c1ccc(-n2cc(CCN3C(=O)c4cc(Br)c(Br)cc4C3=O)nn2)cc1 [Compound 10b, (R)-2-((4-(4-(2-(5,6-dibromo-1,3-dioxoisoindolin-2-yl)ethyl)-1H-1,2,3-triazol-1-yl)phenyl)sulfonamido)-N-hydroxy-3-phenylpropanamide] | 
